Source: patent US5686424A, “2-oxoethyl derivatives as immunosuppressants” (Miles Inc., priority 1995, dated 1997)
Where a name gives a salt, the structure may show the parent alone.

Experiments:
human T-cells = assay: Suppression of Human T-Cell Proliferation Assay (PHA-stimulated, [3H]-thymidine incorporation); type: cell-based; settings: concentration inhibiting [3H]-thymidine incorporation of PHA-stimulated T-cells by 50%, 72 hours; TABLE 2; read-out: IC50
Procedure, shortened: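 Read-out is scintillation counting of [3H]-thymidine pulsed for the last 6 h of a 72 h, 37° C culture. Human T-cells, isolated from LeukoPaks by Lymphoprep and sheep-erythrocyte rosetting, were PHA-M activated (40 μg/ml stock) with compound dilutions added in duplicate wells.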

NF-AT = NF-AT Inhibition Assay Directed β-Galactosidase Expression in FGL-5 cells; type: cell-based; settings: 50% inhibition of NF-AT directed β-galactosidase activity in FGL-5 cells stimulated with phorbol dibutyrate and ionomycin; TABLE 3
Procedure, shortened: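 FGL-5 Jurkat cells (3 million cells/ml) carry NF-AT-site-driven lacZ. They were stimulated with phorbol dibutyrate plus ionomycin and incubated with compound 16-18 h at 37 °C, in duplicate wells with matched ethanol or DMSO vehicle controls. β-Galactosidase was read as fluorescence from 4-methylumbelliferyl-β-D-galactoside cleavage, giving percent inhibition.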

FKBP = FKBP (Homo sapiens, UniProt P62942); assay: PPIase Inhibition Assay; type: biochemical; settings: concentration of inhibitor required for 50% inhibition of enzyme activity; FKBP, substrate Succinyl-Ala-Phe-Pro-Phe-para-nitroanilide; TABLE I
FKBP, sequence (P62942 whole entry): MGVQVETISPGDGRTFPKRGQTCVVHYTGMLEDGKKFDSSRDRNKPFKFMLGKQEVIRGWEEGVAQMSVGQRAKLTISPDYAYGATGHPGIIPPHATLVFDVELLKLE
Procedure, shortened: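 Rates from p-nitroaniline release at 390 nm over 90 sec, fitted first-order, were converted to % activity remaining relative to uncatalyzed and uninhibited rates, with IC50 from linear regression of V-/V+ against inhibitor level. FKBP acted on Suc-Ala-Phe-Pro-Phe-pNA with excess chymotrypsin, HEPES pH 7.8, cold buffer.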

Row | Structure (SMILES) | IC50 (human T-cells) [µM] | IC50 (NF-AT) [µM] | IC50 (FKBP) [µM]
1 | CC[C@H](C)[C@H](NC(=O)[C@@H]1CCCN1CC(=O)c1ccccc1Oc1ccccc1)C(=O)NCc1ccccc1 [Example 105, L-Isoleucine, N-[1-(2-(2-Phenoxyphenyl)-2-Oxoethyl)-L-Prolyl] Benzylamide] | > 15 | > 15 | < 5
2 | COc1cc(C(=O)CN2CCC[C@H]2C(=O)N(C)CCc2ccccc2)cc(OC)c1OC [Example 135, L-Proline, 1-[2-(3,4,5-Trimethoxyphenyl)-2-Oxoethyl] N-MethylphenethylamideHydrochloride] | 14 | > 33 | > 5
3 | CC[C@H](C)[C@H](NC(=O)[C@@H]1CCCN1CC(=O)c1c(OC)cccc1OC)C(=O)NCc1ccccc1 [Example 112, L-Isoleucine, N-[1-(2-(2,6-Dimethoxyphenyl)-2-Oxoethyl)-L-Prolyl] Benzylamide] | 7 | > 15 | < 5
4 | CC(C)[C@H](NC(=O)[C@@H]1CCCN1CC(=O)C12CC3CC(CC(C3)C1)C2)C(=O)NCc1ccccc1 [Example 56, L-Valine, N-[1-(2-Adamantan-1-yl-2-Oxoethyl)-L-Prolyl] Benzylamide] | 8 | 73 | 1.2
5 | CC[C@H](C)[C@H](NC(=O)[C@@H]1CCCN1CC(=O)C12CC3CC(CC(C3)C1)C2)C(=O)NCc1ccccn1 [Example 68, L-Isoleucine, N-[1-(2-Adamantan-1-yl-2-Oxoethyl)-L-Prolyl] Pyridin-2-ylmethylamide] | 16 | 60 | 0.4
6 | COc1cc(C(=O)CN2CCCC[C@H]2C(=O)N[C@@H](C)c2ccccc2)cc(OC)c1OC [Example 150, L-Homoproline, 1-[2-(3,4,5-Trimethoxyphenyl)-2-Oxoethyl] (S)-α-methylbenzylamide Hydrochloride] | > 15 | > 15 | > 5
7 | CC[C@H](C)[C@H](NC(=O)[C@@H]1CCCN1CC(=O)OCC=C(C)c1ccccc1)C(=O)NCc1ccccc1 [Example 85, L-Isoleucine, N-[1-(2-(3-Phenyl-3-Methyl-2-Propen-1-Oxy)-2-Oxoethyl)-L-Prolyl] Benzylamide] | 22 | 13 | < 5
8 | CC[C@H](C)[C@H](NC(=O)[C@@H]1CCCN1CC(=O)C12CC3CC(CC(C3)C1)C2)C(=O)NCc1ccc(OC)cc1 [Example 69, L-Isoleucine, N-[1-(2-Adamantan-1-yl-2-Oxoethyl)-L-Prolyl] 4-methoxybenzylamide] | 8 | 16 | 0.2
9 | NC(=O)C[C@H](NC(=O)[C@@H]1CCCN1CC(=O)C12CC3CC(CC(C3)C1)C2)C(=O)NCc1ccccc1 [Example 61, L-Asparagine, N-[1-(2-Adamantan-1-yl-2-Oxoethyl)-L-Prolyl] Benzylamide] | 17 | > 100 | < 5
10 | COc1cc(C(=O)CN2CCC[C@H]2C(=O)NCCCCc2ccccc2)cc(OC)c1OC [Example 123, L-Proline, 1-[2-(3,4,5-Trimethoxyphenyl)-2-Oxoethyl] 4-Phenylbutylamide Hydrochloride] | 10 | > 15 | > 5
11 | COc1cc(C(=O)CN2CCC[C@H]2C(=O)NC2CCCCC2)cc(OC)c1OC [Example 145, L-Proline, 1-[2-(3,4,5-Trimethoxyphenyl)-2-Oxoethyl] Cyclohexyl amide Hydrochloride] | 4 | > 33 | > 5
12 | COc1cc(C(=O)CN2CCC[C@H]2C(=O)NC(c2ccccc2)c2ccccc2)cc(OC)c1OC [Example 142, L-Proline, 1-[2-(3,4,5-Trimethoxyphenyl)-2-Oxoethyl] Diphenylmethylamide Hydrochloride] | 12 | > 33 | > 5
13 | CC[C@H](C)[C@H](NC(=O)[C@@H]1CCCN1CC(=O)C1CCc2ccccc2C1)C(=O)NCc1ccccc1 (stereo partly drawn) [Example 43, L-Isoleuclne, N-[1-(2-(1,2,3,4-tetrahydro-Napththalen-2-yl)-2-Oxoethyl)-L-Prolyl] Benzylamide] | 16 | 14 | < 5
14 | CC[C@H](C)[C@H](NC(=O)[C@@H]1CCCN1CC(=O)C12CC3CC(CC(C3)C1)C2)C(=O)N[C@@H](C)c1ccccc1 [Example 65, L-Isoleucine, N-[1-(2-Adamantan-1-yl-2-Oxoethyl)-L-Prolyl] alpha-(S)-methylbenzylamide] | 8 | 17 | 0.1
15 | COc1cc(C(=O)CN2CCC[C@H]2C(=O)NCC2CCCO2)cc(OC)c1OC (stereo partly drawn) [Example 128, L-Proline, 1-[2-(3,4,5-Trimethoxyphenyl)-2-Oxoethyl] Tetrahydrofurfurylamide] | 4 | > 15 | > 5
16 | COc1cc(C(=O)CN2CCC[C@H]2C(=O)NCC(=O)c2ccccc2)cc(OC)c1OC [Example 127, L-Proline, 1-[2-(3,4,5-Trimethoxyphenyl)-2-Oxoethyl] 2-Phenyl-2-oxoethylamide] | > 15 | > 15 | > 5
17 | CC[C@H](C)[C@H](NC(=O)[C@@H]1CCCN1CC(=O)c1cc2ccccc2o1)C(=O)NCc1ccccc1 [Example 100, L-Isoleucine, N-[1-(2-(Benzofuran-2-yl)-2-Oxoethyl)-L-Prolyl] Benzylamide Hydrochloride Salt] | > 15 | > 15 | > 5
18 | C=CCOC(=O)Nc1ccc(CCCOC(=O)[C@@H]2CCCCN2CC(=O)C23CC4CC(CC(C4)C2)C3)cc1 [Example 161, L-Homoproline, 1-[2-Adamant-1-yl-2-Oxoethyl] 3-(4-(N-Carboallyloxy)aminophenyl)propyl Ester Hydrochloride] | 9 | > 15 | > 5
19 | COc1ccccc1CNC(=O)[C@@H]1CCCN1CC(=O)c1cc(OC)c(OC)c(OC)c1 [Example 134, L-Proline, 1-[2-(3,4,5-Trimethoxyphenyl)-2-Oxoethyl] 2-Methoxybenzamide Hydrochloride] | 19 | > 33 | > 5
20 | COc1cc(C(=O)CN2CCC[C@H]2C(=O)NCC23CC4CC(CC(C4)C2)C3)cc(OC)c1OC [Example 139, L-Proline, 1-[2-(3,4,5-Trimethoxyphenyl)-2-Oxoethyl] Adamant-1-ylmethylamide Hydrochloride] | 4 | > 33 | > 5
21 | CC[C@H](C)[C@H](NC(=O)[C@@H]1CCCN1CC(=O)C1(c2ccccc2)CCCCC1)C(=O)NCc1ccccc1 [Example 116, L-Isoleucine, N-[1-(2-(1-Phenylcyclohexyl)-2-Oxoethyl)-L-Prolyl] Benzylamide] | 6 | 14 | < 5
22 | CCCCCC1CCC(C(=O)CN2CCC[C@H]2C(=O)N[C@H](C(=O)NCc2ccccc2)[C@@H](C)CC)CC1 (stereo partly drawn) [Example 42, L-Isoleuclne, N-[1-(2-(4-Pentylcyclohexyl)-2-Oxoethyl)-L-Prolyl] Benzylamide] | 7 | 22 | > 5
23 | CC[C@H](C)[C@H](NC(=O)[C@@H]1CCCN1CC(=O)c1c(OC)cc(OC)cc1OC)C(=O)NCc1ccccc1 [Example 110, L-Isoleucine, N-[1-(2-(2,4,6-Trimethoxyphenyl)-2-Oxoethyl)-L-Prolyl] Benzylamide] | 6 | > 15 | < 5
24 | CC[C@H](C)[C@H](NC(=O)[C@@H]1CCCN1CC(=O)C12CC3CC(CC(C3)C1)C2)C(=O)NCc1ccncc1 [Example 67, L-Isoleucine, N-[1-(2-Adamantan-1-yl-2-Oxoethyl)-L-Prolyl] Pyridin-4-ylmethylamide] | 19 | > 100 | 0.71
25 | CC[C@H](C)[C@H](NC(=O)[C@@H]1CCCN1CC(=O)OC(CN1CCOCC1)c1ccccc1)C(=O)NCc1ccccc1 (stereo partly drawn) [Example 88, L-Isoleucine, N-[1-(2-(1-Phenyl-2-(4-Morpholino)Ethoxy)-2-Oxoethyl)-L-Prolyl] Benzylamide] | 16 | 13 | < 5
26 | COc1cc(C(=O)CN2CCC[C@H]2C(=O)NCCc2ccccc2)cc(OC)c1OC [Example 121, L-Proline, 1-[2-(3,4,5-Trimethoxyphenyl)-2-Oxoethyl] 2-Phenethylamide Hydrochloride] | 7 | > 15 | > 5
27 | O=C(CNC(=O)[C@@H]1CCCN1CC(=O)C12CC3CC(CC(C3)C1)C2)NCc1ccccc1 [Example 55, Glycine, N-[1-(2-Adamantan-1-yl-2-Oxoethyl)-L-Prolyl] Benzylamide] | 13 | 44 | 5.1
28 | C=CCOC(=O)Nc1ccc(CCNC(=O)[C@@H]2CCCN2CC(=O)c2cc(OC)c(OC)c(OC)c2)cc1 [Example 156, L-Proline, 1-[2-(3,4,5-Trimethoxyphenyl)-2-Oxoethyl] 2-(4-(N-carboalloxy)aminophenyl)ethylamide] | 6 | > 15 | > 5
